We go through 1 molecule from PMC5266331, “Novel PARP-1 Inhibitor Scaffolds Disclosed by a Dynamic Structure-Based Pharmacophore Approach” (PLoS ONE, 2017).

What is called IC50 is the point on the concentration scale where inhibition reaches its midpoint.

The test concerns the target T1, PARP-1 (Homo sapiens, UniProt P09874).
T1 construct: gene PARP1
The test can be described thus: HT Universal Colorimetric PARP Assay kit (histone-coated wells, biotinylated poly(ADP-ribose)). It is filed as biochemical.

T1 sequence (P09874 2-1014): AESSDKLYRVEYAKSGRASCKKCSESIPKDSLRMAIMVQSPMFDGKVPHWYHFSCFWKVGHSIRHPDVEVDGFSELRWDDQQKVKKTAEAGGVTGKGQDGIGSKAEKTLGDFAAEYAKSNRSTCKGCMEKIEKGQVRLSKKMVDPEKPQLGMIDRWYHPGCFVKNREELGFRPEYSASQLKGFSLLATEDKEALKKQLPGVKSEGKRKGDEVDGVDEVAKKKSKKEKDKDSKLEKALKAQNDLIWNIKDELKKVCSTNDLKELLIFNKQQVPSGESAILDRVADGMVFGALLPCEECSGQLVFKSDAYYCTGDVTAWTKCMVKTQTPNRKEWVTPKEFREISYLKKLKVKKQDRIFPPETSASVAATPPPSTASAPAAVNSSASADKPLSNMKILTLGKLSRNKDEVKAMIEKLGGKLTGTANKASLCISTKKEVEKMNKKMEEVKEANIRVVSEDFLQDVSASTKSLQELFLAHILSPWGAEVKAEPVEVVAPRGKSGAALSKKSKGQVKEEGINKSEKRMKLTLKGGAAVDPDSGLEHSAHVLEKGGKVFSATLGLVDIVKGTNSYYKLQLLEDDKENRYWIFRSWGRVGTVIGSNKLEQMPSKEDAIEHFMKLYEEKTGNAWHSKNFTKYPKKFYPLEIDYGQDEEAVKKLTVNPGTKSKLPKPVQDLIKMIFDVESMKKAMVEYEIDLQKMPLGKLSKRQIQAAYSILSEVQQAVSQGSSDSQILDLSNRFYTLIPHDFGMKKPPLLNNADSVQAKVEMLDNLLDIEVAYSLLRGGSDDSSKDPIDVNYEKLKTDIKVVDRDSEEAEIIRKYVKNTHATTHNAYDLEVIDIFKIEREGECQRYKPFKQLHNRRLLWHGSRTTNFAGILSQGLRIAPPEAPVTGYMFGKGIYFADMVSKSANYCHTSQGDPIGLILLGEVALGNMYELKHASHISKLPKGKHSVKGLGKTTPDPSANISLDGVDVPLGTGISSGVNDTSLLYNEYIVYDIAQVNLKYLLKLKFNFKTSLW

Regarding `COc1ccc2c(c1O)CNCC2c1ccc(O)c(O)c1` (stereo not shown) [NSC131753], the midpoint of inhibition, the IC50, lay at 0.24 µM.
